A word on the solubility: it is the dissolved amount per volume that the medium holds. One may read the IC50 as the midpoint of a concentration-inhibition curve. A low value points to greater potency in that assay.

From US9604980B2, “Substituted pyrimidinyl and pyridinyl-pyrrolopyridinones, process for their preparation and their use as kinase inhibitors” (NERVIANO MEDICAL SCIENCES S.r.l, priority 2012, dated 2017) come the findings set out here.

≈ marks a conversion by molar mass, not a printed value. Where only a bound is given, the exact number is not on record here.

The nature of series [1]: High-Throughput Solubility Assay. Format: physicochemical. As to conditions: for solubility at 24 h: kinetic from dmso stock, pH 7, aqueous potassium phosphate buffer, nominal 200 μM, 24 h at room temperature. The procedure:
High-Throughput Solubility Assay
A nominal 200 μM suspensions/solutions of a compound of formula (I) in aqueous potassium phosphate buffer at pH=7 and aqueous citric acid buffer at pH=3 were prepared on a “Multiscreen-HTS”, 0.2 μm filter plate (Millipore, Billerica, Mass.). These solutions were stirred for 10 min and stored for 24 h at room temperature to pre-saturate the membrane filter and to reach a “pseudo-thermodynamic solubility”. Then the plate was put on a 500 μL 96 multiwell plate containing 200 μL of acetonitrile in each well and centrifuged at 2000 rpm for 5 minutes. The so obtained solutions were then analyzed simultaneously by HPLC-UV with standard solutions for quantification.

Series [2] has as its system TT medullary thyroid carcinoma cells, harboring a mutated RET-C634W receptor. Nature of the series: In Vitro Cell Proliferation Assay (TT). Format: cell-based. As to conditions: Homo sapiens; 144 hours exposure, CellTiterGlo. As for the experimental part: (§1) In Vitro Cell Proliferation Assay
(§2) To evaluate the antiproliferative activity of a compound of formula (I) the following human cell lines were used: A2780 ovarian and MCF-7 breast carcinoma; TT and MZ-CRC-1 medullary thyroid carcinoma, harboring a mutated RET-C634W and RET-M918T receptor respectively, LC-2/ad Non Small Cell Lung Carcinoma, expressing the CCDC6-RET fusion gene product. Exponentially growing cells were seeded and incubated at 37° C. in a humidified 5% C02 atmosphere using appropriate medium supplemented with 10% Fetal Bovine Serum. 24 hours following cell plating, scalar doses of the compounds dissolved in 0.1% DMSO were added to the medium and cells were exposed to drugs for either 72 hours (MCF-7 and A2780) or 144 hours (TT, MZ-CRC-1 and LC-2/ad), according to their different proliferation rate. At the end of treatment, cell proliferation was determined by an intracellular ATP monitoring system (CellTiterGlo—Promega), following manufacturer's instructions, and using an Envision instrument (PerkinElmer) as reader. Data obtained from compound versus vehicle treated cells were compared using Assay Explorer (Symyx Technologies Inc) software. IC50 values were calculated using sigmoidal interpolation curve fitting.
Background: Cellular ATP, detected with luciferase, serves as a proxy for viable cell number.

Series [3] concerns A2780 ovarian carcinoma cells. Kind of series: In Vitro Cell Proliferation Assay (A2780). As to conditions: Homo sapiens, 72 hours exposure, CellTiterGlo. The class given is cell-based. The procedure: as §1, §2
Series [4] has as its system MCF-7 breast carcinoma cells. Kind of series: In Vitro Cell Proliferation Assay (MCF-7). The class given is cell-based. The note with it: Homo sapiens, MCF7; 72 hours exposure, CellTiterGlo. As for the experimental part: as §1, §2
Series [5] has as its system MZ-CRC-1 medullary thyroid carcinoma cells, harboring a mutated RET-M918T receptor. Kind of series: In Vitro Cell Proliferation Assay (MZ-CRC-1). Format: cell-based. As to conditions: Homo sapiens, 144 hours exposure, CellTiterGlo. The procedure: as §1, §2

`CCN1CCN(Cc2cc(NC(=O)Nc3cccc(C#Cc4cnc(N)nc4-c4cc5c(n4C)CCNC5=O)c3)ccc2C(F)(F)F)CC1` [Cmpd 22, 1-{3-[2-Amino-4-(1-methyl-4-oxo-4,5,6,7-tetrahydro-1H-pyrrolo[3,2-c]pyridin-2-yl)-pyrimidin-5-ylethynyl]-phenyl}-3-[3-(4-ethyl-piperazin-1-ylmethyl)-4-trifluoromethyl-phenyl]-urea] showed a solubility at 24 h in series [1] of 5.8 µM (≈ 3.9 µg/mL). Besides, the IC50 was determined as 0.007 µM in series [2], 1150 nM in series [3] and 2810 nM in series [4].

In series [1], `CCN1CCN(Cc2cc(NC(=O)Nc3cccc(C#Cc4cnc(N)nc4-c4cc5c(n4C)CCNC5=O)c3)cc(C(F)(F)F)c2)CC1` [Cmpd 29, 1-{3-[2-Amino-4-(1-methyl-4-oxo-4,5,6,7-tetrahydro-1H-pyrrolo[3,2-c]pyridin-2-yl)-pyrimidin-5-ylethynyl]-phenyl}-3-[3-(4-ethyl-piperazin-1-ylmethyl)-5-trifluoromethyl-phenyl]-urea] displayed a solubility at 24 h of 7.4 µM (≈ 4.97 µg/mL). The IC50 in series [2] turned out to be 0.085 µM; in series [3], 2230 nM; in series [4], 9160 nM.

In series [1], `CCN1CCN(Cc2ccc(NC(=O)Nc3ccc(C#Cc4cnc(N)nc4-c4cc5c(n4C)CCNC5=O)cc3)cc2C(F)(F)F)CC1` [Cmpd 30, 1-{4-[2-Amino-4-(1-methyl-4-oxo-4,5,6,7-tetrahydro-1H-pyrrolo[3,2-c]pyridin-2-yl)-pyrimidin-5-ylethynyl]-phenyl}-3-[4-(4-ethyl-piperazin-1-ylmethyl)-3-trifluoromethyl-phenyl]-urea] registered a solubility at 24 h of 1.7 µM (≈ 1.14 µg/mL). For the same molecule, the figures for the IC50 in series [2], in series [3] and in series [4] were 0.008 µM, 1000 nM and 2190 nM, respectively.

Consider `CCN1CCN(Cc2ccc(NC(=O)Nc3cccc(C#Cc4cnccc4-c4cc5c(n4C)CCNC5=O)c3)cc2C(F)(F)F)CC1` [Cmpd 38, 1-[4-(4-Ethyl-piperazin-1-ylmethyl)-3-trifluoromethyl-phenyl]-3-{3-[4-(1-methyl-4-oxo-4,5,6,7-tetrahydro-1H-pyrrolo[3,2-c]pyridin-2-yl)-pyridin-3-ylethynyl]-phenyl}-urea], for which the solubility at 24 h in series [1] was 10.8 µM (≈ 7.08 µg/mL). Besides, the IC50 in series [2] turned out to be 0.038 µM; in series [3] it was 1950 nM; in series [4], 5040 nM.

`CCN1CCN(Cc2ccc(NC(=O)N3CCc4ccc(C#Cc5cnc(N)nc5-c5cc6c(n5C)CCNC6=O)cc43)cc2C(F)(F)F)CC1` [Cmpd 44, 6-[2-Amino-4-(1-methyl-4-oxo-4,5,6,7-tetrahydro-1H-pyrrolo[3,2-c]pyridin-2-yl)-pyrimidin-5-ylethynyl]-2,3-dihydro-indole-1-carboxylic acid [4-(4-ethyl-piperazin-1-ylmethyl)-3-trifluoromethyl-phenyl]-amide] came in with a solubility at 24 h in series [1] of 4.7 µM (≈ 3.28 µg/mL). For the same molecule, the IC50 turned out to be 0.069 µM in series [2], 0.231 µM in series [5], 1720 nM in series [3] and 3480 nM in series [4].

With `Cn1nc(C(C)(C)C)cc1NC(=O)Cc1cccc(C#Cc2cnc(N)nc2-c2cc3c(n2C)CCNC3=O)c1` [Cmpd 105, 2-{3-[2-Amino-4-(1-methyl-4-oxo-4,5,6,7-tetrahydro-1H-pyrrolo[3,2-c]pyridin-2-yl)-pyrimidin-5-ylethynyl]-phenyl}-N-(5-tert-butyl-2-methyl-2H-pyrazol-3-yl)-acetamide], in series [1], the solubility at 24 h turned out to be 15.3 µM (≈ 8.21 µg/mL). Moreover, the half-inhibitory concentration (IC50) in series [2] was 0.025 µM; in series [3], 2740 nM; in series [4], greater than 10000 nM.

In series [1], `CCN1CCN(Cc2ccc(NC(=O)Cc3cncc(C#Cc4cnc(N)nc4-c4cc5c(n4C)CCNC5=O)c3)cc2C(F)(F)F)CC1` [Cmpd 122, 2-{5-[2-Amino-4-(1-methyl-4-oxo-4,5,6,7-tetrahydro-1H-pyrrolo[3,2-c]pyridin-2-yl)-pyrimidin-5-ylethynyl]-pyridin-3-yl}-N-[4-(4-ethyl-piperazin-1-ylmethyl)-3-trifluoromethyl-phenyl]-acetamide] returned a solubility at 24 h of 9.4 µM (≈ 6.31 µg/mL). In addition, the results for the 50% inhibitory concentration (IC50) in series [2], in series [3] and in series [4] were 0.001 µM, 704 nM and 2690 nM, respectively.

In series [1], `CCN1CCN(Cc2ccc(NC(=O)Cc3ccc(C#Cc4cnc(N)nc4-c4cc5c(n4C)CCNC5=O)cc3)cc2C(F)(F)F)CC1` [Cmpd 123, 2-{4-[2-Amino-4-(1-methyl-4-oxo-4,5,6,7-tetrahydro-1H-pyrrolo[3,2-c]pyridin-2-yl)-pyrimidin-5-ylethynyl]-phenyl}-N-[4-(4-ethyl-piperazin-1-ylmethyl)-3-trifluoromethyl-phenyl]-acetamide] returned a solubility at 24 h of 25.1 µM (≈ 16.8 µg/mL). For the same molecule, the half-maximal inhibitory concentration (IC50) was 0.06 µM in series [2], 3900 nM in series [3] and greater than 10000 nM in series [4].

`CCN1CCN(Cc2ccc(NC(=O)Cc3ccc(C#Cc4cnc(N)nc4-c4cc5c(n4C)CCNC5=O)s3)cc2C(F)(F)F)CC1` [Cmpd 129, 2-{5-[2-Amino-4-(1-methyl-4-oxo-4,5,6,7-tetrahydro-1H-pyrrolo[3,2-c]pyridin-2-yl)-pyrimidin-5-ylethynyl]-thiophen-2-yl}-N-[4-(4-ethyl-piperazin-1-ylmethyl)-3-trifluoromethyl-phenyl]-acetamide] yielded a solubility at 24 h in series [1] of 26.4 µM (≈ 17.9 µg/mL). For the same molecule, the IC50 in series [2] came to 0.002 µM; in series [3], 105 nM; in series [4], 8180 nM.

As to `CN1CCCN(Cc2ccc(NC(=O)Cc3cccc(C#Cc4cnc(N)nc4-c4cc5c(n4C)CCNC5=O)c3)cc2C(F)(F)F)CC1` [Cmpd 149, 2-{3-[2-Amino-4-(1-methyl-4-oxo-4,5,6,7-tetrahydro-1H-pyrrolo[3,2-c]pyridin-2-yl)-pyrimidin-5-ylethynyl]-phenyl}-N-[4-(4-methyl-[1,4]diazepan-1-ylmethyl)-3-trifluoromethyl-phenyl]-acetamide], the solubility at 24 h in series [1] was 30.4 µM (≈ 20.4 µg/mL). Also, the IC50 in series [2] is 0.013 µM; in series [3], 1910 nM; in series [4], 3720 nM.

`CN(C)[C@H]1CCN(Cc2ccc(NC(=O)Cc3cccc(C#Cc4cnc(N)nc4-c4cc5c(n4C)CCNC5=O)c3)cc2C(F)(F)F)C1` [Cmpd 150, 2-{3-[2-Amino-4-(1-methyl-4-oxo-4,5,6,7-tetrahydro-1H-pyrrolo[3,2-c]pyridin-2-yl)-pyrimidin-5-ylethynyl]-phenyl}-N-[4-((S)-3-dimethylamino-pyrrolidin-1-ylmethyl)-3-trifluoromethyl-phenyl]-acetamide] registered a solubility at 24 h in series [1] of 40.2 µM (≈ 27 µg/mL). The IC50 in series [2] came to 0.006 µM; in series [3] it was 1930 nM; in series [4], 5640 nM.

The molecule `CCCN1CCN(Cc2ccc(NC(=O)Cc3cccc(C#Cc4cnc(N)nc4-c4cc5c(n4C)CCNC5=O)c3)cc2C(F)(F)F)CC1` [Cmpd 164, 2-{3-[2-Amino-4-(1-methyl-4-oxo-4,5,6,7-tetrahydro-1H-pyrrolo[3,2-c]pyridin-2-yl)-pyrimidin-5-ylethynyl]-phenyl}-N-[4-(4-propyl-piperazin-1-ylmethyl)-3-trifluoromethyl-phenyl]-acetamide] yielded a solubility at 24 h in series [1] of 8.9 µM (≈ 6.09 µg/mL). Further, the half-maximal inhibitory concentration (IC50) in series [2] is 0.002 µM; in series [3], 2020 nM; in series [4], 5620 nM.

For the molecule `CCCN1CCN(Cc2ccc(NC(=O)Cc3cccc(C#Cc4cnc(NC)nc4-c4cc5c(n4C)CCNC5=O)c3)cc2C(F)(F)F)CC1` [Cmpd 179, 2-{3-[2-Methylamino-4-(1-methyl-4-oxo-4,5,6,7-tetrahydro-1H-pyrrolo[3,2-c]pyridin-2-yl)-pyrimidin-5-ylethynyl]-phenyl}-N-[4-(4-propyl-piperazin-1-ylmethyl)-3-trifluoromethyl-phenyl]-acetamide], the solubility at 24 h in series [1] was 1.2 µM (≈ 0.839 µg/mL). Besides, the figures for the half-maximal inhibitory concentration (IC50) in series [2], in series [5] and in series [3] were 0.017 µM, 0.038 µM and 3240 nM, respectively.

As for `Cn1c(-c2nc(N)ncc2C#Cc2cccc(NC(=O)Nc3ccc(C(F)(F)F)cc3)c2)cc2c1CCNC2=O` [Reference cmpd, 1-{3-[2-Amino-4-(1-methyl-4-oxo-4,5,6,7-tetrahydro-1H-pyrrolo[3,2-c]pyridin-2-yl)-pyrimidin-5-ylethynyl]-phenyl}-3-(4-trifluoromethyl-phenyl)-urea, reference compound], in series [1], the solubility at 24 h is less than 1 µM. Further, the “solubility (in words)” value in series [1] (neutral, physiological pH (pH 7), compared with the reference compound) is reported as “lack of solubility”. Also, the IC50 in series [2] is 0.041 µM; in series [5], 0.317 µM; in series [3], 2750 nM; in series [4], 4540 nM.
